Each structure is given as a SMILES string.

The subject of the experiment is Symptome des Heuschnupfens. The following applies: alone or together, without Hydroxiphenylalkanolamin.

Regarding `Cc1ncc(C[n+]2csc(CCO)c2C)c(N)n1` [Vitamin B₁], the “die Symptome des Heuschnupfens lindernde Wirkung” value is reported as “weder alleine noch gemeinsam miteinander”.
